# Values quoted from earlier work in patent US20110152382A1, “Composition of molecular elements for phosphorylase kinase inhibition” (priority 2009, published 2011).
# How the values were obtained:
# phosphorylase kinase [1] = conditions: previously reported by the inventor
# phosphorylase kinase [2] = tested on: phosphorylase kinase
Molecule,phosphorylase kinase activity in psoriatic skin (phosphorylase kinase [1]),anti-phosphorylase kinase activity (phosphorylase kinase [2])
"COc1cc(/C=C/C(=O)CC(=O)/C=C/c2ccc(O)c(OC)c2)ccc1O [curcumin, diferuloylmethane]",suppression of phosphorylase kinase activity,selective phosphorylase kinase inhibitor
curcumin glucuronate,–,do not have anti-phosphorylase kinase activity
